Test system: stable CF patients
Test: Phase 2 study: CFQ-R questionnaire
Format: in vivo, human
Settings: for CFQ-R respiratory, mean change from baseline: Baseline to Day 28
Method: The following dosage regimens (as nebulizer loaded doses) were evaluated: 120 mg QD (daily); 240 mg QD (daily); and 240 mg BID (twice daily).
Patients were assessed on Day 1, 7, 14, and 28, and then up to 28 days after completion of study drug, namely, Days 42 and 56. The end of the study was defined as the last visit of the last patient.
Efficacy was evaluated by microbiologic assessment of sputum samples, time to need for anti-pseudomonal antimicrobials, the Cystic Fibrosis Questionaire-Revised (CFQ-R), and pulmonary function tests. […] Pair-wise comparisons between all the treatment arms were conducted as secondary analyses.
Patients completed the CFQ-R questionnaire with domains that included: respiratory, body image, digestion, eating, emotion, health perception, physical, role/school, social, treatment burden, vitality, and weight.

[1] = EE population, Combined 240 mg QD and BID
[2] = MITT population, 240 mg BID vs Placebo, baseline to visit 4
[3] = MITT population, 240 mg BID, baseline to visit 4
[4] = MITT population, Combined 240 mg QD and BID

C[C@H]1COc2c(N3CCN(C)CC3)c(F)cc3c(=O)c(C(=O)O)cn1c23 [Levofloxacin, levofloxacin]
Respiratory domain of CFQ-R, Change from Baseline to Day 14, Mean (EE population, 120 mg QD): 4.3 | Respiratory domain of CFQ-R, Change from Baseline to Day 14, Median (EE population, 120 mg QD): 5.5 | Respiratory domain of CFQ-R, Change from Baseline to Day 28, Mean (EE population, 120 mg QD): 1.6 | Respiratory domain of CFQ-R, Change from Baseline to Day 28, Median (EE population, 120 mg QD): 0.0 | Respiratory domain of CFQ-R, Day 1, Mean (EE population, 120 mg QD): 63.5 | Respiratory domain of CFQ-R, Day 1, Median (EE population, 120 mg QD): 66.7 | Respiratory domain of CFQ-R, Day 14, Mean (EE population, 120 mg QD): 67.8 | Respiratory domain of CFQ-R, Day 14, Median (EE population, 120 mg QD): 66.7 | Respiratory domain of CFQ-R, Day 28, Mean (EE population, 120 mg QD): 65.1 | Respiratory domain of CFQ-R, Day 28, Median (EE population, 120 mg QD): 66.7 | Respiratory domain of CFQ-R, Change from Baseline to Day 14, Mean (EE population, 240 mg BID): 8.5 | Respiratory domain of CFQ-R, Change from Baseline to Day 14, Median (EE population, 240 mg BID): 5.6 | Respiratory domain of CFQ-R, Change from Baseline to Day 28, Mean (EE population, 240 mg BID): 5.2 | Respiratory domain of CFQ-R, Change from Baseline to Day 28, Median (EE population, 240 mg BID): 5.5 | Respiratory domain of CFQ-R, Day 1, Mean (EE population, 240 mg BID): 60.3 | Respiratory domain of CFQ-R, Day 1, Median (EE population, 240 mg BID): 61.1 | Respiratory domain of CFQ-R, Day 14, Mean (EE population, 240 mg BID): 68.8 | Respiratory domain of CFQ-R, Day 14, Median (EE population, 240 mg BID): 72.2 | Respiratory domain of CFQ-R, Day 28, Mean (EE population, 240 mg BID): 66.0 | Respiratory domain of CFQ-R, Day 28, Median (EE population, 240 mg BID): 72.2 | Respiratory domain of CFQ-R, Change from Baseline to Day 14, Mean (EE population, 240 mg QD): 2.1 | Respiratory domain of CFQ-R, Change from Baseline to Day 14, Median (EE population, 240 mg QD): 0.0 | Respiratory domain of CFQ-R, Change from Baseline to Day 28, Mean (EE population, 240 mg QD): 1.0 | Respiratory domain of CFQ-R, Change from Baseline to Day 28, Median (EE population, 240 mg QD): 0.0 | Respiratory domain of CFQ-R, Day 1, Mean (EE population, 240 mg QD): 60.8 | Respiratory domain of CFQ-R, Day 1, Median (EE population, 240 mg QD): 61.1 | Respiratory domain of CFQ-R, Day 14, Mean (EE population, 240 mg QD): 63.2 | Respiratory domain of CFQ-R, Day 14, Median (EE population, 240 mg QD): 66.7 | Respiratory domain of CFQ-R, Day 28, Mean (EE population, 240 mg QD): 61.7 | Respiratory domain of CFQ-R, Day 28, Median (EE population, 240 mg QD): 66.7 | Respiratory domain of CFQ-R, Change from Baseline to Day 14, Mean [1]: 5.3 | Respiratory domain of CFQ-R, Change from Baseline to Day 14, Median [1]: 5.6 | Respiratory domain of CFQ-R, Change from Baseline to Day 28, Mean [1]: 3.0 | Respiratory domain of CFQ-R, Change from Baseline to Day 28, Median [1]: 0.0 | Respiratory domain of CFQ-R, Day 1, Mean [1]: 60.5 | Respiratory domain of CFQ-R, Day 1, Median [1]: 61.1 | Respiratory domain of CFQ-R, Day 14, Mean [1]: 66.0 | Respiratory domain of CFQ-R, Day 14, Median [1]: 66.7 | Respiratory domain of CFQ-R, Day 28, Mean [1]: 63.8 | Respiratory domain of CFQ-R, Day 28, Median [1]: 66.7 | CFQ-R respiratory, mean change from baseline (EE, 120 mg QD): 1.0 units | Respiratory domain of CFQ-R, Change from Baseline to Day 14, Mean (MITT population, 120 mg QD): 4.5 | Respiratory domain of CFQ-R, Change from Baseline to Day 14, Median (MITT population, 120 mg QD): 5.5 | Respiratory domain of CFQ-R, Change from Baseline to Day 28, Mean (MITT population, 120 mg QD): 2.0 | Respiratory domain of CFQ-R, Change from Baseline to Day 28, Median (MITT population, 120 mg QD): 0.0 | Respiratory domain of CFQ-R, Day 1, Mean (MITT population, 120 mg QD): 62.3 | Respiratory domain of CFQ-R, Day 1, Median (MITT population, 120 mg QD): 61.1 | Respiratory domain of CFQ-R, Day 14, Mean (MITT population, 120 mg QD): 67.1 | Respiratory domain of CFQ-R, Day 14, Median (MITT population, 120 mg QD): 66.7 | Respiratory domain of CFQ-R, Day 28, Mean (MITT population, 120 mg QD): 64.6 | Respiratory domain of CFQ-R, Day 28, Median (MITT population, 120 mg QD): 66.7 | Respiratory domain of CFQ-R, Change from Baseline to Day 14, Mean (MITT population, 240 mg BID): 7.5 | Respiratory domain of CFQ-R, Change from Baseline to Day 14, Median (MITT population, 240 mg BID): 5.6 | Respiratory domain of CFQ-R, Change from Baseline to Day 28, Mean (MITT population, 240 mg BID): 3.0 | Respiratory domain of CFQ-R, Change from Baseline to Day 28, Median (MITT population, 240 mg BID): 0.0 | Respiratory domain of CFQ-R, Day 1, Mean (MITT population, 240 mg BID): 60.5 | Respiratory domain of CFQ-R, Day 1, Median (MITT population, 240 mg BID): 61.1 | Respiratory domain of CFQ-R, Day 14, Mean (MITT population, 240 mg BID): 68.4 | Respiratory domain of CFQ-R, Day 14, Median (MITT population, 240 mg BID): 72.2 | Respiratory domain of CFQ-R, Day 28, Mean (MITT population, 240 mg BID): 64.4 | Respiratory domain of CFQ-R, Day 28, Median (MITT population, 240 mg BID): 72.2 | CFQ-R Body Image, LS Mean Difference [2]: −0.25 | CFQ-R Digestion, LS Mean Difference [2]: 2.46 | CFQ-R Eating, LS Mean Difference [2]: 5.70 | CFQ-R Emotion, LS Mean Difference [2]: −0.09 | CFQ-R Health Perception, LS Mean Difference [2]: 2.58 | CFQ-R Physical, LS Mean Difference [2]: 5.94 | CFQ-R Respiratory, LS Mean Difference [2]: 4.50 | CFQ-R Role/School, LS Mean Difference [2]: −0.53 | CFQ-R Social, LS Mean Difference [2]: 2.37 | CFQ-R Treatment Burden, LS Mean Difference [2]: 0.06 | CFQ-R Vitality, LS Mean Difference [2]: 3.11 | CFQ-R Weight, LS Mean Difference [2]: 5.4 | CFQ-R Body Image, LS Mean Change from Baseline [3]: 0.34 | CFQ-R Digestion, LS Mean Change from Baseline [3]: 1.11 | CFQ-R Eating, LS Mean Change from Baseline [3]: 2.41 | CFQ-R Emotion, LS Mean Change from Baseline [3]: 2.22 | CFQ-R Health Perception, LS Mean Change from Baseline [3]: 0.52 | CFQ-R Physical, LS Mean Change from Baseline [3]: 3.14 | CFQ-R Respiratory, LS Mean Change from Baseline [3]: 4.06 | CFQ-R Role/School, LS Mean Change from Baseline [3]: −1.94 | CFQ-R Social, LS Mean Change from Baseline [3]: 0.69 | CFQ-R Treatment Burden, LS Mean Change from Baseline [3]: −0.93 | CFQ-R Vitality, LS Mean Change from Baseline [3]: 1.23 | CFQ-R Weight, LS Mean Change from Baseline [3]: 10.06 | Respiratory domain of CFQ-R, Change from Baseline to Day 14, Mean (MITT population, 240 mg QD): 1.4 | Respiratory domain of CFQ-R, Change from Baseline to Day 14, Median (MITT population, 240 mg QD): 0.0 | Respiratory domain of CFQ-R, Change from Baseline to Day 28, Mean (MITT population, 240 mg QD): 0.3 | Respiratory domain of CFQ-R, Change from Baseline to Day 28, Median (MITT population, 240 mg QD): 0.0 | Respiratory domain of CFQ-R, Day 1, Mean (MITT population, 240 mg QD): 61.3 | Respiratory domain of CFQ-R, Day 1, Median (MITT population, 240 mg QD): 61.1 | Respiratory domain of CFQ-R, Day 14, Mean (MITT population, 240 mg QD): 63.0 | Respiratory domain of CFQ-R, Day 14, Median (MITT population, 240 mg QD): 66.7 | Respiratory domain of CFQ-R, Day 28, Mean (MITT population, 240 mg QD): 61.6 | Respiratory domain of CFQ-R, Day 28, Median (MITT population, 240 mg QD): 66.7 | Respiratory domain of CFQ-R, Change from Baseline to Day 14, Mean [4]: 4.5 | Respiratory domain of CFQ-R, Change from Baseline to Day 14, Median [4]: 5.5 | Respiratory domain of CFQ-R, Change from Baseline to Day 28, Mean [4]: 1.7 | Respiratory domain of CFQ-R, Change from Baseline to Day 28, Median [4]: 0.0 | Respiratory domain of CFQ-R, Day 1, Mean [4]: 60.9 | Respiratory domain of CFQ-R, Day 1, Median [4]: 61.1 | Respiratory domain of CFQ-R, Day 14, Mean [4]: 65.8 | Respiratory domain of CFQ-R, Day 14, Median [4]: 69.4 | Respiratory domain of CFQ-R, Day 28, Mean [4]: 63.0 | Respiratory domain of CFQ-R, Day 28, Median [4]: 66.7 | CFQ-R respiratory, mean change from baseline (MITT, 120 mg QD): 0.3 units | CFQ-R respiratory, mean change from baseline (MITT, 240 mg BID): 1.7 units | CFQ-R respiratory, mean change from baseline (MITT, 240 mg QD): 3.0 units
